BindingDB's records for doi:10.1021/jm000022w (Cor Therapeutics, 2000)
Values belong to the compound of their own block, whether it stands above or below them. Positions of bridges follow the written chain, without caps; N, C: chain ends. Non-standard residues stand in square brackets, D forms with d. Residues, ends and D or L forms follow the SMILES beside them. Phe(4-CH2NH2) = NCc1ccc(C[C@H](N)C(=O)O)cc1; Thz(5,5-Me2) = CC1(C)SCN[C@@H]1C(=O)O; NMeR = CN[C@@H](CCCNC(=N)N)C(=O)O

Experiments:
[1] = Inhibition of human platelet aggregation in platelet rich plasma (PRP)
[2] = Inhibition of human gel filtered platelet aggregation induced by ADP
[3] = Inhibition of collagen-induced platelet aggregation
[4] = inhibition of platelet aggregation in human platelet rich plasma
[5] = Inhibition of alpha IIb beta-3 integrin mediated platelet aggregation
[6] = Inhibition of ADP-induced platelet aggregation
[7] = Inhibition of ADP-induced platelet aggregation; remark: listed apart in the source
[8] = Inhibition of human gel filtered platelet aggregation mediated by 10 uM ADP
[9] = Inhibition of human platelet aggregation in platelet rich plasma
[10] = Inhibition of alpha IIb beta-3 integrin mediated platelet aggregation; remark: listed apart in the source
[11] = Inhibition of canine platelet aggregation
[12] = Inhibition of human platelet aggregation

IC50 [1]: 94 nM
SMILES: O=C(CCCC1CCNCC1)NCC(=O)N[C@H](CCc1c[nH]c2ccccc12)C(=O)O [L-703014]

IC50 [2]: 80 nM | IC50 [3]: 130 nM
SMILES: CCOC(=O)CCNC(=O)N[C@H]1CCN(c2ccc(C(=N)N)cc2)C1=O [SC-57099B]

IC50 [4]: 38 nM
SMILES: CCOC(=O)COC1CCN(C(=O)[C@H](C)NC(=O)c2ccc(C(=N)NO)cc2)CC1 [((S)-1-{2-[4-(N-Hydroxycarbamimidoyl)-benzoylamino]-propionyl}-piperidin-4-yloxy)-acetic acid ethyl ester]

IC50 [5]: 45 nM
SMILES: CCOC(=O)CC1CCN(C(=O)C(C)(C)[C@@H](CC)NC(=O)c2ccc(C(=N)N3CCSC3)cc2F)CC1 [(1-{3-[2-Fluoro-4-(imino-thiazolidin-3-yl-methyl)-benzoylamino]-2,2-dimethyl-pentanoyl}-piperidin-4-yl)-acetic acid ethyl ester(NSL-96184)]

IC50 [8]: 26 nM
SMILES: CC(=O)N[C@H]1CSSC[C@@H](C(=O)O)NC(=O)[C@H](CC(=O)O)NC(=O)CNC(=O)[C@H](Cc2ccc(CN)cc2)NC(=O)[C@H]2N(CSC2(C)C)C(=O)[C@H](CC(N)=O)NC1=O [8-Acetylamino-22-(4-aminomethyl-benzyl)-5-carbamoylmethyl-16-carboxymethyl-1,1-dimethyl-4,7,15,18,21,24-hexaoxo-icosahydro-2,10,11-trithia-3a,6,14,17,20,23-hexaaza-cyclopentacyclotricosene-13-carboxylic acid (MK-0852)] (Ac-CN[Thz(5,5-Me2)][Phe(4-CH2NH2)]GDC-OH; disulfide 1-7)

IC50 [11]: 90 nM | IC50 [12]: 230 nM
SMILES: CC(=O)N[C@H]1CSSC[C@@H](C(N)=O)NC(=O)[C@H](CC(=O)O)NC(=O)CNC(=O)[C@H](CCCNC(=N)N)N(C)C1=O [[16-Acetylamino-4-carbamoyl-13-(3-guanidino-propyl)-14-methyl-6,9,12,15-tetraoxo-1,2-dithia-5,8,11,14-tetraaza-cycloheptadec-7-yl]-acetic acid (SK&F 106760)] (Ac-C[NMeR]GDC-NH2; disulfide 1-5)

The remaining lines, values behind:

SMILES: CCCCOC(=O)N[C@@H](CNC(=O)C1CC(OCc2ccc(C(=N)N)cc2)=NO1)C(=O)OC (some centres not stated) [2-Butoxycarbonylamino-3-{[3-(4-carbamimidoyl-benzyloxy)-4,5-dihydro-isoxazole-5-carbonyl]-amino}-propionic acid methyl ester(XU 065)]
IC50 [6]: 50 nM

SMILES: N=C(N)c1ccc(C(=O)Nc2ccc3c(c2)C(=O)N(CCC(=O)O)Cc2nnnn2-3)cc1 [3-[8-(4-Carbamimidoyl-benzoylamino)-6-oxo-4H,6H-1,2,3,5,10b-pentaaza-benzo[e]azulen-5-yl]-propionic acid(G7453)]
IC50 [7]: 54 nM

SMILES: O=C(NC[C@H](NS(=O)(=O)c1ccccc1)C(=O)O)c1cnc(N2CCN(C3CCNCC3)CC2)s1 [2-Benzenesulfonylamino-3-{[2-(4-piperidin-4-yl-piperazin-1-yl)-thiazole-5-carbonyl]-amino}-propionic acid (UR-12947)]
IC50 [9]: 3.5 nM

SMILES: C[C@H](CC(=O)O)NC(=O)CN1CCC[C@@H](CCC2CCNCC2)C1=O [3-{2-[2-Oxo-3-(2-piperidin-4-yl-ethyl)-piperidin-1-yl]-acetylamino}-butyric acid (L-734217)]
IC50 [10]: 23 nM
